Data reported in patent publication US20250353835A1, “N-TETRAZOLYL ARYL UREA-BASED DERIVATIVES, PREPARATION METHOD THEREFOR, AND USE THEREOF” (Hangzhou Yirui Pharmaceutical Technology Co., Ltd, priority 2022, published 2025).

What was measured:
CYP2C9 = target: T1, CYP2C9 (Homo sapiens, UniProt P11712); assay: CYP450 inhibition in human liver microsomes (substrate method, LC-MS/MS); format: in vitro ADME; details: read-out: CYP inhibition IC50 [μM], 2C9
T1 construct: The substrate method was used to determine the activity of human liver microsomal CYP450 enzyme; from tissue; host or cells: human liver microsomes
T1 sequence (P11712 whole entry): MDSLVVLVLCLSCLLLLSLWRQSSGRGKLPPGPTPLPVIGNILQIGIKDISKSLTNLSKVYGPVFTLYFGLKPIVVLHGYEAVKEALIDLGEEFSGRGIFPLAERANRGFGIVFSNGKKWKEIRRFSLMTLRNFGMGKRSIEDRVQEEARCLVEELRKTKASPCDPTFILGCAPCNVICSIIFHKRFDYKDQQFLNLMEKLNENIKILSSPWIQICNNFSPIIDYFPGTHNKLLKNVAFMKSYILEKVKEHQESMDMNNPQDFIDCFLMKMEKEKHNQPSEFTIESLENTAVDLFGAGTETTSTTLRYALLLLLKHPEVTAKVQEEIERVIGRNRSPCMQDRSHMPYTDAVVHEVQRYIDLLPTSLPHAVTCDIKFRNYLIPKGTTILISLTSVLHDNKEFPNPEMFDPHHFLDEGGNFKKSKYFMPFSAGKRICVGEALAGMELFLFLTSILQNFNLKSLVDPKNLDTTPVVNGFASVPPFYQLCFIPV
Method: (§1) In addition, the LC-MS/MS method was used to determine the substrate metabolites of 5 major subtypes of human liver microsomal CYP450 enzymes (including CYP1A2, CYP2D6, CYP2C8, CYP2C9, and CYP3A4). The substrate method was used to determine the activity of human liver microsomal CYP450 enzyme. The established incubation system was verified using known inhibitors to investigate the inhibitory effect of the compound on CYP450 enzyme. For the enzyme induction test, a primary cultured human hepatocyte incubation system was used. 3-methylcholanthrene, phenobarbital, and rifampicin were used as positive control inducers of CYP1A2, CYP2B6, and CYP3A4, and phenacetin, bupropion, and testosterone were used as the substrate for CYP1A2, CYP2B6, and CYP3A4. The CYP450 enzyme activity was calculated by measuring the generation rate of 3 specific substrate metabolites in the incubation solution. Meanwhile, the total RNA was extracted from the human hepatocytes after incubation, and the real-time fluorescence quantitative PCR method was used to determine the mRNA expression level of CYP1A2, […], and CYP3A4. The enzyme activity and mRNA transcription level were used as endpoints to investigate the inductive effect of the compound on human liver P450 isoenzymes CYP1A2, […], and CYP3A4. The liver microsomal metabolism parameters in vitro are shown in Table 2B3 taking Compound 8 as an example.

CYP1A2 = target: T2, CYP1A2 (Homo sapiens, UniProt P05177); assay: as above; format: in vitro ADME; details: read-out: CYP inhibition IC50 [μM], 1A2
T2 construct: The substrate method was used to determine the activity of human liver microsomal CYP450 enzyme; from tissue; host or cells: human liver microsomes
T2 sequence (P05177 1-516): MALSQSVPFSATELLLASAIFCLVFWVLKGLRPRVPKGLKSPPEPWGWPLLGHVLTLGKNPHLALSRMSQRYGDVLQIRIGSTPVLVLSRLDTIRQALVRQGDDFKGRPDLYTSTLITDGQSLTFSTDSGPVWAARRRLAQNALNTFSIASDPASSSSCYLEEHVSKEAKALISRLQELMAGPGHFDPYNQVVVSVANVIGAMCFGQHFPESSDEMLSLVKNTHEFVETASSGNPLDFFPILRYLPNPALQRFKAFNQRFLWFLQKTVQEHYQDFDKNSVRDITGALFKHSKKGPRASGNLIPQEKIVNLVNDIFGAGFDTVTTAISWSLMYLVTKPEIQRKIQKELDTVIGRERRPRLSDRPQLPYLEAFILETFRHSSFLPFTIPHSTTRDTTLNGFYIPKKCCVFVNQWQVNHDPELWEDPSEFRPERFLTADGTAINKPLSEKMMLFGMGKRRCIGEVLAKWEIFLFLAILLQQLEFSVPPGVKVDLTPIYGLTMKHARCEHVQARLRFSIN
Method: as §1

CYP2C8 = target: T3, CYP2C8 (Homo sapiens, UniProt P10632); assay: as above; format: in vitro ADME; details: read-out: CYP inhibition IC50 [μM], 2C8
T3 construct: The substrate method was used to determine the activity of human liver microsomal CYP450 enzyme; from tissue; host or cells: human liver microsomes
T3 sequence (P10632 1-490): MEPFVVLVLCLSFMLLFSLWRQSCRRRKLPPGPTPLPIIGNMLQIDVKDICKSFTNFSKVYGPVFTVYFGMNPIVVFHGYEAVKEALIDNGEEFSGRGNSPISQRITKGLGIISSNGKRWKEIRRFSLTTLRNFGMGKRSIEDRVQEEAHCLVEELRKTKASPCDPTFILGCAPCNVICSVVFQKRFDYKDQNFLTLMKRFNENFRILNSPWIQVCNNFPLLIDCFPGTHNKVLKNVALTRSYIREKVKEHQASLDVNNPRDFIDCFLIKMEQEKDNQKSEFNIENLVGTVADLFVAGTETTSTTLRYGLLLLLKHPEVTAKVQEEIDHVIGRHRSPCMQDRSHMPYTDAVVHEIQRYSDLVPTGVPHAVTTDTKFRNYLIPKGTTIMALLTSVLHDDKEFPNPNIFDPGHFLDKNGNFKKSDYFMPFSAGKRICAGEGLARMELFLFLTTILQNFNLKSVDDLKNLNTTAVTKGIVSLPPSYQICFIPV
Method: as §1

CYP2D6 = target: T4, CYP2D6 (Homo sapiens, UniProt P10635); assay: as above; format: in vitro ADME; details: read-out: CYP inhibition IC50 [μM], 2D6
T4 construct: The substrate method was used to determine the activity of human liver microsomal CYP450 enzyme; from tissue; host or cells: human liver microsomes
T4 sequence (P10635 whole entry): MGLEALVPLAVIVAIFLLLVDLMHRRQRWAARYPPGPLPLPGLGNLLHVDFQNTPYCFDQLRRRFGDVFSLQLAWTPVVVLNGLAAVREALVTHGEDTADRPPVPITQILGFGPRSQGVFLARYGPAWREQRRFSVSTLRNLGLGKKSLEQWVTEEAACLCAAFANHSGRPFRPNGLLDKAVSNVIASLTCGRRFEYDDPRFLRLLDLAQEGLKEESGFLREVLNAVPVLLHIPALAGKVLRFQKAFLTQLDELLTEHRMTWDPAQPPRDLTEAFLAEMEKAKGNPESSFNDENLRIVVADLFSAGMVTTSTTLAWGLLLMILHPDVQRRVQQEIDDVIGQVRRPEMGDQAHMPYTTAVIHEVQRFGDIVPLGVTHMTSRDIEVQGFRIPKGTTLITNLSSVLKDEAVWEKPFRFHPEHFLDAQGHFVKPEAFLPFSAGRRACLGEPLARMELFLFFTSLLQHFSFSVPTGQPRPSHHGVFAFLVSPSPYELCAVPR
Method: as §1

CYP3A4 = target: T5, CYP3A4 (Homo sapiens, UniProt P08684); assay: as above; format: in vitro ADME; details: read-out: CYP inhibition IC50 [μM], 3A4
T5 construct: from tissue; host or cells: human liver microsomes
T5 sequence (P08684 whole entry): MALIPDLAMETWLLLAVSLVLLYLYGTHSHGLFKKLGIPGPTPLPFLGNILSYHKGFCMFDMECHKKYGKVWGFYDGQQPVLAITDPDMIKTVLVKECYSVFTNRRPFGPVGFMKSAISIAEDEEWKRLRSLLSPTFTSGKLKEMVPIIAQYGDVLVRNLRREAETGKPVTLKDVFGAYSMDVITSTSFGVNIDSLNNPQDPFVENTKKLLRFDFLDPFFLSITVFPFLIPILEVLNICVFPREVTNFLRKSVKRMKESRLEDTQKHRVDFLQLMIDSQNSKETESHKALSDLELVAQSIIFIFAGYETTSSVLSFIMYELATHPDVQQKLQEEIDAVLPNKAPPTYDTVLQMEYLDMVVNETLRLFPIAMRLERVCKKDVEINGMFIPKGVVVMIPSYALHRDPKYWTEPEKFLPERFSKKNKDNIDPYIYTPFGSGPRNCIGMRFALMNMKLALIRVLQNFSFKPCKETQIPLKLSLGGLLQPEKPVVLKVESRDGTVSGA
Method: as §1

[1] = test system: rat model of acute lung injury; assay: Rat model of LPS-induced acute lung injury; format: in vivo, Wistar rats; design: IL-6 (serum) / IL-6 (homogenate of lung tissue) / IL-6 (bronchoalveolar lavage fluid) / TNF-α (serum) / TNF-α (homogenate of lung tissue) / TNF-α (bronchoalveolar lavage fluid): unit not given here; details: ELISA; for expression levels of IL-6 and TNF-α (in words): rat model of acute lung injury; for IL-6 (bronchoalveolar lavage fluid) / IL-6 (homogenate of lung tissue) / IL-6 (serum) / TNF-α (bronchoalveolar lavage fluid) / TNF-α (homogenate of lung tissue) / TNF-α (serum): test drug 30 mg/kg i.p. 2 h before and 1 h after LPS, 12 h after modeling
Method: 1. Experimental aminals: SPF-grade male Wistar rats, weighed 180-220 g, 6-8 weeks old.
3. Establishment of animal model: The rats were adaptively fed for one week. After the animals were anesthetized, 3 mg/kg LPS (B8) was injected intratracheally to prepare the rat model of acute lung injury.
4. […] At 2 hours before modeling (before tracheal injection of LPS), the test drug (30 mg/kg, the vehicle was 0.3% DMSO in saline) was intraperitoneally injected. At 1 hour after modeling, the test drug was administered once again (at the same dose). At 12 hours after modeling, the animals were sacrificed, and the samples were collected for the tests of various indexes. […]
5.2 ELISA method: 5 rats per group. The serum, alveolar lavage fluid, and tissue homogenate of one lung of each of the rats were subjected to ELISA assay to determine the TNF-α and IL-6 levels.

[2] = Liver microsomal metabolism in vitro, human LM clearance; format: in vitro ADME; details: human liver microsomes in vitro
Method: as §1

IC50 (CYP2C9) [µM]	IC50 (CYP1A2) [µM]	IC50 (CYP2C8) [µM]	IC50 (CYP2D6) [µM]	IC50 (CYP3A4) [µM]	Human LM clearance [2] [mL/min/kg]	Compound	expression levels of IL-6 and TNF-α (in words) [1]	IL-6 (bronchoalveolar lavage fluid) [1]	IL-6 (homogenate of lung tissue) [1]	IL-6 (serum) [1]	TNF-α (bronchoalveolar lavage fluid) [1]	TNF-α (homogenate of lung tissue) [1]	TNF-α (serum) [1]
50	50	50	50	50	8.5	CCOc1ccc(-c2c(F)cc(NC(=O)N3CCC(C(C)(C)C)CC3)cc2-c2nn[nH]n2)cn1 [Compound 8, 4-(tert-butyl)-N-(4-(6-ethoxypyrid-3-yl)-3-fluoro-5-(2H-tetrazol-5-yl)phenyl)piperidine-1-carboxamide]	effectively reduce	171.55 ± 81.93	250.10 ± 70.26	470.76 ± 151.60	26.72 ± 10.35	35.74 ± 11.82	94.89 ± 28.07
–	–	–	–	–	–	CCOc1ccc(-c2ccc(NC(=O)N[C@H]3CC[C@H](C)CC3)cc2-c2nn[nH]n2)cn1 [Compound 71, 1-(4-(6-ethoxypyrid-3-yl)-3-(2H-tetrazol-5-yl)phenyl)-3-((trans)-4-methylcyclohexyl)urea]	effectively reduce	184.29 ± 75.57	236.26 ± 84.91	473.14 ± 134.88	25.73 ± 11.35	37.03 ± 10.88	101.63 ± 37.40
